# Article PMC9578392, “Safety, Tolerability, and Pharmacokinetics of the Novel Antiviral Agent Ensitrelvir Fumaric Acid, a SARS-CoV-2 3CL Protease Inhibitor, in Healthy Adults” (Antimicrobial Agents and Chemotherapy, 2022)
# “Also recorded” adds a separate entry of the source. Where two headings read alike, the source gives them in different places.
# Assays:
# [1] = Multiple-dose pharmacokinetics (part 2, cohorts F, G, H); format: in vivo, human; settings: for GLS mean ratio (90% CI) of AUC0-τ (white/Japanese) / GLS mean ratio (90% CI) of Cmax (white/Japanese): 375/125 mg, cohort H vs F; for Cmax / AUC / Tmax: human, plasma, oral; for Cmax / AUC: geometric mean (%CV); for AUC: read-out: AUC0-τ; for Tmax: median (min, max)
# [2] = Effect of food on pharmacokinetics (cohort C, 250 mg crossover); format: in vivo, human; settings: for Tmax / AUC(0-inf) / AUC(0-t) / Cmax / half-life: human, plasma, oral, 250 mg; for AUC(0-inf): read-out: AUC0-inf, GLS mean; for AUC(0-t): read-out: AUC0-last, GLS mean; for Cmax: read-out: Cmax, GLS mean; for half-life: read-out: t1/2,z, GLS mean (converted)
# Procedure: In part 1, Japanese participants were randomized to receive placebo or single dose of ensitrelvir (20, 70, 250, 500, 1,000, and 2,000 mg given to cohorts A, B, C, D, E, and J, respectively), suspended in 0.5% methylcellulose, in the fasted state. Additionally, in cohort C, the effect of food on the pharmacokinetics of ensitrelvir was investigated in a 2-group, 2-period crossover design by administering placebo or ensitrelvir (250 mg) in the fasted or fed (high-fat/high-calorie) state. In part 2, Japanese participants were randomized to receive placebo or multiple doses of ensitrelvir, suspended in 0.5% methylcellulose. The multiple-dose regimens were as follows: once-daily doses of ensitrelvir 375 mg on day 1 and 125 mg on days 2 to 5 (cohort F), or 750 mg on day 1 and 250 mg on days 2 to 6 (cohort G) in the fasted state. White participants were randomized to receive placebo or multiple doses of ensitrelvir. The multiple-dose regimens were as follows: once-daily doses of ensitrelvir 375 mg on day 1 and 125 mg on days 2 to 5 (cohort H). Each cohort included 11 participants. In cohort G, the effect of ensitrelvir on the pharmacokinetics of midazolam (syrup) was evaluated in an open label self-controlled crossover design. Midazolam 2 mg alone was administered 2 days prior to initiating ensitrelvir administration (on day −2) and midazolam was coadministered on day 6 with placebo or ensitrelvir in the fasted state to participants following once-daily doses for 5 days of placebo (days 1 to 5) or ensitrelvir (750 mg on day 1 and 250 mg on days 2–5).
# Blood and urine samples were collected and analyzed at several time points to determine the concentration of ensitrelvir and midazolam. For single-dose administration, blood samples were collected predose (0 h) and 0.5, 1, 1.5, 2, 2.5, 3, 4, 6, 8, 12, 24, 36, 48, 60, 72, 96, 120, and 144 h postdose on day 1 at 20 mg (cohort A); predose (0 h) and 0.5, 1, 1.5, 2, 2.5, 3, 4, 6, 8, 12, 24, 36, 48, 60, 72, 96, 120, 144, 192, and 336 h postdose on day 1 at 70, 500, 1,000, and 2,000 mg (cohorts B, D, E, and J); and predose (0 h) and 0.5, 1, 1.5, 2, 2.5, 3, 4, 6, 8, 12, 24, 36, 48, 60, 72, 96, 120, and 144, 192, and 336 h postdose on days 1 and 15 at 250 mg (cohort C). Urine samples were collected at 0 to 24, 24 to 48, 48 to 72, 72 to 96, 96 to 120, and 120 to 144 h postdose on day 1 at 20, 70, 500, and 1,000 mg (cohorts A, B, D, and E); and 0 to 24, 24 to 48, 48 to 72, 72 to 96, 96 to 120, and 120 to 144 h postdose on days 1 and 15 at 250 mg (cohort C). For multiple-dose administration, blood samples were collected predose (0 h) and 0.5, 1, 1.5, 2, 2.5, 3, 4, 6, 8, and 12 h postdose on day 1; predose (0 h) on days 2 to 4; and predose (0 h) and 0.5, 1, 1.5, 2, 2.5, 3, 4, 6, 8, 12, and 24 h postdose on day 5 to evaluate the pharmacokinetics of ensitrelvir. Blood samples were also collected predose (0 h) and 0.5, 1, 2, 3, 4, 5, 6, 8, 12, and 24 h postdose on […] to evaluate the pharmacokinetics of midazolam.
# Pharmacokinetic parameters were estimated based on the plasma concentration time data for ensitrelvir and midazolam by noncompartmental analysis (Phoenix WinNonlin version 6.2.1, Certara USA Inc., Princeton, NJ, USA). Dose proportionality assessments included the Cmax, area under the plasma concentration-time curve (AUC0-last, AUC0-inf, and AUC0-τ), and dose independency included t1/2,z, terminal elimination rate constant (λz), MRT, CL/F, and Vz/F. Urine pharmacokinetic parameters for ensitrelvir were calculated based on the urine concentrations of ensitrelvir and urine volume with noncompartmental analysis. Feu0-144 was calculated after single-dose administration. Additionally, renal clearance (CLR) was calculated using the cumulative amount of the drug excreted in urine and AUC in plasma for ensitrelvir. […]
# [3] = system: SARS-CoV-2; set-up: method as in PMID 35352927; settings: BALB/cAJcl mice; cited from earlier work
# [4] = 375 mg, F/375/125 mg (Japanese), Day 1, fasted
# [5] = 375 mg, H/375/125 mg (white), Day 1, fasted
# [6] = 750 mg, G/750/250 mg (Japanese), Day 1, fasted
# [7] = F/375/125 mg (Japanese), Day 5, fasted
# [8] = G/750/250 mg (Japanese), Day 5, fasted
# [9] = H/375/125 mg (white), Day 5, fasted
# [10] = Cohort C/250 mg single dose, Fasted
# [11] = Cohort C/250 mg single dose, Fed
structure (smiles),measurement,setting,value
"Cn1cnc(Cn2c(=O)[nH]/c(=N\c3cc4cn(C)nc4cc3Cl)n(Cc3cc(F)c(F)cc3F)c2=O)n1 [Ensitrelvir, ensitrelvir fumaric acid]",GLS mean ratio (90% CI) of AUC0-τ (white/Japanese),[1]; day 1,0.7241 (0.6517–0.8046)
same,GLS mean ratio (90% CI) of Cmax (white/Japanese),[1]; day 1,0.7699 (0.6738–0.8796)
same,GLS mean ratio (90% CI) of AUC0-τ (white/Japanese),[1]; day 5,0.8645 (0.7740–0.9656)
same,GLS mean ratio (90% CI) of Cmax (white/Japanese),[1]; day 5,0.8651 (0.7774–0.9627)
same,"GLS mean ratio (90% CI) of AUC0-τ, cohort G [750/250 mg] versus F [375/125 mg]",[1]; day 1,1.6893 (1.4492–1.9692)
same,"GLS mean ratio (90% CI) of Cmax, cohort G [750/250 mg] versus F [375/125 mg]",[1]; day 1,1.5185 (1.2747–1.8089)
same,"GLS mean ratio (90% CI) of AUC0-τ, cohort G [750/250 mg] versus F [375/125 mg]",[1]; day 5,2.2387 (1.9942–2.5132)
same,"GLS mean ratio (90% CI) of Cmax, cohort G [750/250 mg] versus F [375/125 mg]",[1]; day 5,2.1781 (1.9460–2.4379)
same,Cmax,[1]; [4],29500 ng/mL
same,AUC,[1]; [4],484 µg·h/mL
same,Tmax,[1]; [4],1.5 h
same,Cmax,[1]; [5],22700 ng/mL
same,AUC,[1]; [5],351 µg·h/mL
same,Tmax,[1]; [5],1.75 h
same,Cmax,[1]; [6],44800 ng/mL
same,AUC,[1]; [6],818 µg·h/mL
same,Tmax,[1]; [6],3 h
same,Cmax,[1]; [7],30400 ng/mL
same,AUC,[1]; [7],597 µg·h/mL
same,Tmax,[1]; [7],2 h
same,Cmax,[1]; [8],66300 ng/mL
same,AUC,[1]; [8],1340 µg·h/mL
same,Tmax,[1]; [8],2.5 h
same,Cmax,[1]; [9],26300 ng/mL
same,AUC,[1]; [9],516 µg·h/mL
same,Tmax,[1]; [9],1.5 h
same,reduction of Cmax by food intake,"[2]; 250 mg single dose, fed vs fasted",15%
same,effect of food intake on AUC,"[2]; 250 mg single dose, high-fat/high-calorie meal",did not impact; also recorded: did not affect
same,"AUC0-inf, GLS mean (90% CI) ratio (fed/fasted)",[2]; Cohort C/250 mg single dose,1.0460 (1.0047/1.0891)
same,"AUC0-last, GLS mean (90% CI) ratio (fed/fasted)",[2]; Cohort C/250 mg single dose,1.0470 (1.0061/1.0895)
same,"Cmax, GLS mean (90% CI) ratio (fed/fasted)",[2]; Cohort C/250 mg single dose,0.8508 (0.7507/0.9644)
same,"t1/2,z, GLS mean (90% CI) ratio (fed/fasted)",[2]; Cohort C/250 mg single dose,0.9385 (0.8893/0.9905)
same,Tmax,"[2]; 250 mg single dose, fasted state",2.5 h
same,Tmax,"[2]; 250 mg single dose, fed state",8 h
same,AUC(0-inf),[2]; [10],914 µg·h/mL
same,AUC(0-t),[2]; [10],907 µg·h/mL
same,Cmax,[2]; [10],15200 ng/mL
same,half-life,[2]; [10],43.1 h
same,AUC(0-inf),[2]; [11],956 µg·h/mL
same,AUC(0-t),[2]; [11],949 µg·h/mL
same,Cmax,[2]; [11],13000 ng/mL
same,half-life,[2]; [11],40.5 h
same,antiviral activity in mice,[3],dose-dependent antiviral activity
